The values below come from patent US8741934B2, “Inhibitors of ion channels” (Pfizer Limited, priority 2007, dated 2014).

T1 sequence (Q9NY46 whole entry): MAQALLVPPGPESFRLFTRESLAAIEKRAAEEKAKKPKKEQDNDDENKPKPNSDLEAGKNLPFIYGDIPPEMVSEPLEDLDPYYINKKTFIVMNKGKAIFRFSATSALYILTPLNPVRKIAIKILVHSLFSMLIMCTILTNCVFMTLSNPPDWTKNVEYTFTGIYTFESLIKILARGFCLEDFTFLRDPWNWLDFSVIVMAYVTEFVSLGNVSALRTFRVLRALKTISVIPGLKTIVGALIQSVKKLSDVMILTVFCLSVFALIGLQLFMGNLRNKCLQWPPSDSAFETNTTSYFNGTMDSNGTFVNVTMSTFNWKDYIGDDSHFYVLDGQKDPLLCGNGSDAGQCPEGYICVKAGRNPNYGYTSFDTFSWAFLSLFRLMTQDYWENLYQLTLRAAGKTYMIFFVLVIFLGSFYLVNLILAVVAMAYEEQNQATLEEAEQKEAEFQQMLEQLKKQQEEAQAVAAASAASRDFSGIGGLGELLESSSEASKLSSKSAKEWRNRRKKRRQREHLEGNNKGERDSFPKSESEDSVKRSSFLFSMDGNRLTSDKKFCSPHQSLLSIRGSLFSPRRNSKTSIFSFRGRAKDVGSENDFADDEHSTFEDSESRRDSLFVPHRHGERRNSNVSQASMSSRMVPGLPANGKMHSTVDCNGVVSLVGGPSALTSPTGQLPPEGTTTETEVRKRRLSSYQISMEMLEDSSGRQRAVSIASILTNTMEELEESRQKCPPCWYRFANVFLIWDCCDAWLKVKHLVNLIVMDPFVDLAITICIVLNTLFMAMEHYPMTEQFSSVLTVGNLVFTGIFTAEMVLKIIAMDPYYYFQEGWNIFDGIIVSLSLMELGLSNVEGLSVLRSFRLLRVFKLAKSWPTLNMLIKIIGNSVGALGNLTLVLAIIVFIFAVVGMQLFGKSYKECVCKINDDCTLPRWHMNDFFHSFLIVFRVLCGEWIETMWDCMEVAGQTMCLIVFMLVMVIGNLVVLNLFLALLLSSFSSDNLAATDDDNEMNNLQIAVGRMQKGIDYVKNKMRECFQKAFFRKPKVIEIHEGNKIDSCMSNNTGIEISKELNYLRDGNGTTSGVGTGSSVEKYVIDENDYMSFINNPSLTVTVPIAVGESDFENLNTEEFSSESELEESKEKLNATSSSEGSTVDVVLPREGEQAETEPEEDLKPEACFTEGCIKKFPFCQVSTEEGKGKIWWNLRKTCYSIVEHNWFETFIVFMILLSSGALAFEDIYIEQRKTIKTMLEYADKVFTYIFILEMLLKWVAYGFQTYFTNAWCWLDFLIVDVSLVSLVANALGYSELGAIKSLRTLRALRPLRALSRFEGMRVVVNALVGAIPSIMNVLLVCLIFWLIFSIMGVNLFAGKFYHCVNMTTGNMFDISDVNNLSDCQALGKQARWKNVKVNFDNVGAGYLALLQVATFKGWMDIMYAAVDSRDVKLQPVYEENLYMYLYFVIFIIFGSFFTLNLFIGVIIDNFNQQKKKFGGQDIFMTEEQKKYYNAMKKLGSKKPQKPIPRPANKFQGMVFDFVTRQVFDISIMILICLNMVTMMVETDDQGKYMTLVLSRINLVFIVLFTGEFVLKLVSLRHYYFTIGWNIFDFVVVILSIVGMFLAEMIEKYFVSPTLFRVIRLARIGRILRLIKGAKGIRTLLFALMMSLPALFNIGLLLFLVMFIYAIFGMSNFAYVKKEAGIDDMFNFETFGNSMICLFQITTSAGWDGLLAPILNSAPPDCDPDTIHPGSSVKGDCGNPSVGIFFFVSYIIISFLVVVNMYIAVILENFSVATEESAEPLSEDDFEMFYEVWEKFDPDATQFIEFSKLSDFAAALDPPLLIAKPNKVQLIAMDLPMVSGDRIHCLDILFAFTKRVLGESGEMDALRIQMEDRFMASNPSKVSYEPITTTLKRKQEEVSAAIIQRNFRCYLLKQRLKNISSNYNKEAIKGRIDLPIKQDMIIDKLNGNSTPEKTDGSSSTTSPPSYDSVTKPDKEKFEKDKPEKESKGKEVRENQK

This assay has as its target T1, hSCN3A sodium channels (Homo sapiens, UniProt Q9NY46).
T1 construct: expressed in transfected cells
Kind of assay: hSCN3A electrophysiology, whole-cell patch-clamp or PatchXpress 7000, estimated IC-50 (Table B). The conditions noted are these: estimated IC-50; hSCN3A cells, whole-cell patch-clamp or PatchXpress 7000; read-out: SCN3A EIC-50. Format: cell-based. Put shortly: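 A 20 msec test pulse to 0 mV followed an 8 sec conditioning prepulse at each cell's measured V1/2. Room-temperature (22-24° C) recordings on HEK cells stably expressing the channel, conventional or PatchXpress.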
For `O=C(NCc1ccc(OC(F)(F)F)c(F)c1)c1ccc(S(=O)(=O)Nc2ncns2)c(F)c1` [Example 318, 3-Fluoro-N-[3-fluoro-4-(trifluoromethoxy)benzyl]-4-[(1,2,4-thiadiazol-5-ylamino)sulfonyl]benzamide], the IC50 was 0.14 µM.
As for `O=C(NCc1ccc(OC(F)(F)F)c(F)c1)c1ccc(S(=O)(=O)Nc2ncc(Cl)s2)cc1F` [Example 359, 4-{[(5-Chloro-1,3-thiazol-2-yl)amino]sulfonyl}-2-fluoro-N-[3-fluoro-4-(trifluoromethoxy)benzyl]benzamide], the IC50 was 0.17 µM.
In the case of `O=C(NCc1ccc(F)c(Cl)c1)c1ccc(S(=O)(=O)Nc2nccs2)cc1F` [Example 332, N-(3-chloro-4-fluorobenzyl)-2-fluoro-4-[(1,3-thiazol-2-ylamino)sulfonyl] benzamide], the IC50 is 0.38 µM.
For the molecule `O=C(NCc1ccc(F)c(F)c1)c1ccc(S(=O)(=O)Nc2ncc(Cl)s2)c(F)c1` [Example 312, 4-{[(5-Chloro-1,3-thiazol-2-yl)amino]sulfonyl}-N-(3,4-difluorobenzyl)-3-fluorobenzamide], the IC50 was 0.14 µM.
As for `O=C(NCc1ccc(OC(F)(F)F)c(F)c1)c1ccc(S(=O)(=O)Nc2ncc(Cl)s2)cc1` [Example 38], the IC50 was 0.06 µM.
For `Cc1ccc(C2(O)CCN(C(=O)c3ccc(S(=O)(=O)Nc4nccs4)cc3)CC2)cc1` [Example 252, 4-{[4-Hydroxy-4-(4-methylphenyl)piperidin-1-yl]carbonyl}-N-1,3-thiazol-2-yl-benzenesulfonamide], the IC50 is 2.11 µM.
For `O=C(NCc1ccc(OC(F)(F)F)c(F)c1)c1ccc(S(=O)(=O)Nc2nccs2)cc1` [Example 394, N-[3-fluoro-4-(trifluoromethoxy)benzyl]-4-[(1,3-thiazol-2-ylamino)sulfonyl]benzamide], the IC50 is 0.09 µM.
Next, `Cc1csc(NS(=O)(=O)c2ccc(C(=O)NCc3ccc(C(F)(F)F)cc3)cc2)n1` [Example 391, 4-{[(4-methyl-1,3-thiazol-2-yl)amino]sulfonyl}-N-[4-(trifluoromethyl)benzyl] benzamide]: 1.35 µM.
To `Cn1ccc(NS(=O)(=O)c2ccc(C(=O)NCc3ccc(C(F)(F)F)cc3)cc2)n1` [Example 2, 4-{[(1-Methyl-1H-pyrazol-3-yl)amino]sulfonyl}-N-[4-(trifluoromethyl)benzyl]benzamide] belongs more than 1 µM; to `CC(O)(CN(C(=O)c1ccc(S(=O)(=O)Nc2nccs2)cc1)C1CCCCC1)c1ccccc1` (stereo not shown) [Example 257, N-cyclohexyl-N-(2-hydroxy-2-phenylpropyl)-4-[(1,3-thiazol-2-yl-amino)sulfonyl]benzamide], more than 1 µM; to `Cc1cc(NC(=O)c2ccc(S(=O)(=O)Nc3nccs3)cc2)n(-c2ccccc2)n1` [Example 307, N-(3-methyl-1-phenyl-1H-pyrazol-5-yl)-4-[(1,3-thiazol-2-ylamino)sulfonyl]benzamide], 23.7 µM.
With `O=C(NCc1ccc(F)c(OC(F)(F)F)c1)c1ccc(S(=O)(=O)Nc2ncc(Cl)s2)c(F)c1` [Example 313, 4-{[(5-Chloro-1,3-thiazol-2-yl)amino]sulfonyl}-3-fluoro-N-[4-fluoro-3-(trifluoromethoxy)benzyl]benzamide], the IC50 is 0.16 µM.
With `O=C(NCc1cccc(OC(F)(F)F)c1)c1ccc(S(=O)(=O)Nc2ncc(Cl)s2)c(Cl)c1` [Example 364, 3-Chloro-4-{[(5-chloro-1,3-thiazol-2-yl)amino]sulfonyl}-N-[3-(trifluoromethoxy)benzyl]benzamide], the IC50 was 2.18 µM.
`O=C(NCc1cccc(C(F)(F)F)c1)c1ccc(S(=O)(=O)Nc2ncc(Cl)s2)cc1` [Example 28, 4-{[(5-Chloro-1,3-thiazol-2-yl)amino]sulfonyl}-N-[3-(trifluoromethyl)benzyl]benzamide]: the IC50 is 0.24 µM.
Consider `O=C(NCc1ccc(F)cc1F)c1ccc(S(=O)(=O)Nc2nccs2)cc1` [Example 94, N-(2,4-difluorobenzyl)-4-[(1,3-thiazol-2-ylamino)sulfonyl]benzamide], for which the IC50 is more than 0.1 µM.
Take `O=C(NCc1ccc(F)c(F)c1)c1ccc(S(=O)(=O)Nc2nccs2)c(F)c1` [Example 298, N-(3,4-difluorobenzyl)-3-fluoro-4-[(1,3-thiazol-2-ylamino)sulfonyl]benzamide]: the IC50 was 0.16 µM.
To `Cc1ccccc1CNC(=O)c1ccc(S(=O)(=O)Nc2nccs2)cc1` [Example 91, N-(2-methylbenzyl)-4-[(1,3-thiazol-2-ylamino)sulfonyl]benzamide] belongs 1.22 µM; to `Cc1cc(NC(=O)c2ccc(S(=O)(=O)Nc3nccs3)cc2)cnc1C` [Example 175, N-(5,6-dimethylpyridin-3-yl)-4-[(1,3-thiazol-2-ylamino)sulfonyl]benzamide], 4.05 µM; to `COc1ccc(CNC(=O)c2ccc(S(=O)(=O)Nc3nccs3)cc2)cc1Cl` [Example 405, N-(3-chloro-4-methoxybenzyl)-4-[(1,3-thiazol-2-ylamino)sulfonyl] benzamide], 0.06 µM.
For `Cc1noc(C)c1NS(=O)(=O)c1ccc(C(=O)NCc2ccc(C(F)(F)F)cc2)cc1` [Example 26, 4-{[(3,5-Dimethylisoxazol-4-yl)amino]sulfonyl}-N-[4-(trifluoromethyl)benzyl]benzamide], the IC50 is more than 10 µM.
Next, `Cc1ccc(Cl)cc1CNC(=O)c1ccc(S(=O)(=O)Nc2nccs2)cc1` [Example 64, N-(5-chloro-2-methylbenzyl)-4-[(1,3-thiazol-2-ylamino)sulfonyl]benzamide]: 0.45 µM; `O=C(NCc1ccc(C(F)(F)F)cc1F)c1ccc(S(=O)(=O)Nc2ncc(Cl)s2)cc1` [Example 39, 4-{[(5-Chloro-1,3-thiazol-2-yl)amino]sulfonyl}-N-[2-fluoro-4-(trifluoromethyl)benzyl]benzamide]: 0.12 µM; `N#Cc1cc(S(=O)(=O)Nc2ncc(Cl)s2)ccc1C(=O)NCc1ccc(C(F)(F)F)cc1` [Example 347, 4-{[(5-Chloro-1,3-thiazol-2-yl)amino]sulfonyl}-2-cyano-N-[4-(trifluoromethyl)benzyl]benzamide]: 1.62 µM.
For the molecule `Cc1c(Cl)cccc1CNC(=O)c1ccc(S(=O)(=O)Nc2nccs2)cc1` [Example 61, N-(3-chloro-2-methylbenzyl)-4-[(1,3-thiazol-2-ylamino)sulfonyl]benzamide], the IC50 was 0.16 µM.
As to `O=C(NCc1ccc(C(F)(F)F)cc1)c1ccc(S(=O)(=O)Nc2ncc(Cl)s2)cc1Cl` [Example 338, 2-Chloro-4-{[(5-chloro-1,3-thiazol-2-yl)amino]sulfonyl}-N-[4-(trifluoromethyl)benzyl] benzamide], the IC50 was 1.07 µM.
Next, `O=C(NCc1ccc(F)c(F)c1)c1ccc(S(=O)(=O)Nc2ncc(Cl)s2)cc1F` [Example 361, 4-{[(5-Chloro-1,3-thiazol-2-yl)amino]sulfonyl}-N-(3,4-difluorobenzyl)-2-fluorobenzamide]: 0.31 µM.
As to `O=C(NCc1cccc(-c2ccccc2)c1)c1ccc(S(=O)(=O)Nc2nccs2)cc1` [Example 411, N-(biphenyl-3-ylmethyl)-4-[(1,3-thiazol-2-ylamino)sulfonyl] benzamide], the IC50 was 0.12 µM.
Take `O=C(NCc1cccc(C(F)(F)F)c1)c1ccc(S(=O)(=O)Nc2nccs2)cc1` [Example 398, 4-[(1,3-Thiazol-2-ylamino)sulfonyl]-N-[3-(trifluoromethyl)benzyl] benzamide]: the IC50 was 0.26 µM.
Next, `O=C(NCc1ccc(OC(F)(F)F)c(F)c1)c1ccc(S(=O)(=O)Nc2nccs2)cn1` [Example 343, N-[3-fluoro-4-(trifluoromethoxy)benzyl]-5-[(1,3-thiazol-2-ylamino)sulfonyl] pyridine-2-carboxamide]: 0.31 µM; `O=C(c1ccc(S(=O)(=O)Nc2nccs2)cc1)N1CCCC(Cc2cccc(F)c2)C1` (stereo not shown) [Example 47, 4-{[3-(3-Fluorobenzyl)piperidin-1-yl]carbonyl}-N-1,3-thiazol-2-ylbenzenesulfonamide]: 0.92 µM; `O=C(NCc1cccc(F)c1)c1ccc(S(=O)(=O)Nc2nccs2)cc1` [Example 90, N-(3-fluorobenzyl)-4-[(1,3-thiazol-2-ylamino)sulfonyl]benzamide]: 1.66 µM.
`COc1ccc(CNC(=O)c2ccc(S(=O)(=O)Nc3nccs3)cc2)cc1C(F)(F)F` [Example 412, N-[4-methoxy-3-(trifluoromethyl)benzyl]-4-[(1,3-thiazol-2-ylamino)sulfonyl] benzamide]: the IC50 is 0.27 µM.
Next, `Cc1ncc(NS(=O)(=O)c2ccc(C(=O)NCc3ccc(C(F)(F)F)cc3)cc2)s1` [Example 16, 4-{[(2-Methyl-1,3-thiazol-5-yl)amino]sulfonyl}-N-[4-(trifluoromethyl)benzyl]benzamide]: more than 10 µM.
For `O=C(Nc1cnn(Cc2ccc(Cl)cc2)c1)c1ccc(S(=O)(=O)Nc2ncc(Cl)s2)c(F)c1` [Example 381, N-[1-(4-chlorobenzyl)-1H-pyrazol-4-yl]-4-{[(5-chloro-1,3-thiazol-2-yl)amino]sulfonyl}-3-fluorobenzamide], the IC50 is 0.12 µM.
For the molecule `O=C(NCCc1cccc(F)c1)c1ccc(S(=O)(=O)Nc2nccs2)cc1` [Example 75, N-[2-(3-fluorophenyl)ethyl]-4-[(1,3-thiazol-2-ylamino)sulfonyl]benzamide], the IC50 was more than 0.3 µM.
For the molecule `O=C(NCc1ccc(C(F)(F)F)c(F)c1)c1ccc(S(=O)(=O)Nc2ncc(Cl)s2)cc1Cl` [Example 339, 2-Chloro-4-{[(5-chloro-1,3-thiazol-2-yl)amino]sulfonyl}-N-[3-fluoro-4-(trifluoromethyl)benzyl]benzamide], the IC50 was 0.59 µM.
Regarding `O=C(NCc1cccc(Cl)c1Cl)c1ccc(S(=O)(=O)Nc2nccs2)cc1` [Example 97, N-(2,3-dichlorobenzyl)-4-[(1,3-thiazol-2-ylamino)sulfonyl]benzamide], the IC50 was 0.64 µM.
